Measured values taken from patent publication US9468642B2, “Imidazopyrazines” (BAYER INTELLECTUAL PROPERTY GMBH, priority 2011, dated 2016).

Target: human kinase Mps-1 (Homo sapiens (Human), UniProt P33981)
Experiment: Mps-1 Kinase Assay (TR-FRET)
Format: biochemical
Conditions: N-terminally GST-tagged human full length recombinant Mps-1; 10 μM ATP; 1 μM peptide substrate; 60 min at 22° C.; read-out: Mps1 IC50
Procedure: The human kinase Mps-1 phosphorylates a biotinylated substrate peptide. Detection of the phosphorylated product is achieved by time-resolved fluorescence resonance energy transfer (TR-FRET) from Europium-labelled anti-phospho-Serine/Threonine antibody as donor to streptavidin labelled with cross-linked allophycocyanin (SA-XLent) as acceptor. Compounds are tested for their inhibition of the kinase activity.
N-terminally GST-tagged human full length recombinant Mps-1 kinase (purchased from Invitrogen, Karslruhe, Germany, cat. no PV4071) was used. As substrate for the kinase reaction a biotinylated peptide of the amino-acid sequence […] (C-terminus in amide form, purchased from Biosynthan GmbH, Berlin) was used.
The concentration of Mps-1 in the assay was adjusted to the activity of the enzyme lot and was chosen appropriate to have the assay in the linear range, typical enzyme concentrations were in the range of about 1 nM (final conc. in the 5 μl assay volume).
The resulting mixture was incubated 1 h at 22° C. to allow the binding of the phosphorylated peptide to the anti-phospho(Ser/Thr)-Europium-antibody. Subsequently the amount of phosphorylated substrate was evaluated by measurement of the resonance energy transfer from the Europium-labelled anti-phospho(Ser/Thr) antibody to the Streptavidin-XLent.

human kinase Mps-1, sequence (P33981 whole entry): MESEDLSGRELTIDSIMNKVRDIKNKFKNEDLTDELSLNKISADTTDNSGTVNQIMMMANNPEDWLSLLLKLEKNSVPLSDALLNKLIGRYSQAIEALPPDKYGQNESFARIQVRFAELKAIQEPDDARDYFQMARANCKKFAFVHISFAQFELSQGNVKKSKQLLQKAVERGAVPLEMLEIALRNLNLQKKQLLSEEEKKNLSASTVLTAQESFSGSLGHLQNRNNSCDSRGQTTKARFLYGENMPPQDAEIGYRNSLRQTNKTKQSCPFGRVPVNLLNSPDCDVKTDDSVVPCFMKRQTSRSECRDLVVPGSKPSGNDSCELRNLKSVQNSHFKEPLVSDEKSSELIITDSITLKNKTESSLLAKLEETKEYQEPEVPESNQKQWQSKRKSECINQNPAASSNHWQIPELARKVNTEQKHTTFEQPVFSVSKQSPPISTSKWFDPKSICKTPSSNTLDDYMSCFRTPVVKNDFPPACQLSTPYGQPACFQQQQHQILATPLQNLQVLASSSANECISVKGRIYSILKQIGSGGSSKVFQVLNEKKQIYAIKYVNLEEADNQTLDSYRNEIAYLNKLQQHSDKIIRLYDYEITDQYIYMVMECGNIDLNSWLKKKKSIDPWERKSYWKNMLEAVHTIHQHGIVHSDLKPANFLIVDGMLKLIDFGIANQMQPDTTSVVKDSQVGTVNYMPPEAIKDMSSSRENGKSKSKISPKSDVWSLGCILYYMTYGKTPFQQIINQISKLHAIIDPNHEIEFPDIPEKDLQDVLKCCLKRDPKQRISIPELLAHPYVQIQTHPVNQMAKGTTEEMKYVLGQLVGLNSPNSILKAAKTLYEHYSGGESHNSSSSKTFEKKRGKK

Row | Compound | IC50 [nM]
1 | O=C(NC1CC1)c1ccc(-c2cnc3c(SCCCCO)nc(-c4ccccc4)cn23)cc1 [Example 35, N-cyclopropyl-4-{8-[(4-hydroxybutyl)sulfanyl]-6-phenylimidazo[1,2-a]pyrazin-3-yl}benzamide] | 3.7
2 | O=C(NC1CC1)c1ccc(-c2cnc3c(S(=O)(=O)CCCCO)nc(-c4ccccc4)cn23)cc1 [Example 36, N-cyclopropyl-4-{8-[(4-hydroxybutyl)sulfonyl]-6-phenylimidazo[1,2-a]pyrazin-3-yl}benzamide] | 5.1
3 | (1R or 1S)-1-(4-{3-[4-(2-cyclopropyl-1H-imidazol-5-yl)phenyl]-8-(methylsulfanyl)imidazo[1,2-a]pyrazin-6-yl}phenyl)ethanol [Example 34B] | 58.2
4 | (1S or 1R)-1-(4-{3-[4-(2-cyclopropyl-1H-imidazol-5-yl)phenyl]-8-(methylsulfanyl)imidazo[1,2-a]pyrazin-6-yl}phenyl)ethanol [Example 34C] | 95
